From PMC6278366, “Synthesis and Evaluation of Anticancer Activities of Novel C-28 Guanidine-Functionalized Triterpene Acid Derivatives” (Molecules, 2018)

Columns and labels:
[1] = test system: Jurkat (T-lymphoblastic leukemia) cells; experiment: cells; type: cell-based; settings: Homo sapiens, Jurkat, mean ± SE, at least three experiments in duplicate; viable cells; read-out: IC50 Jurkat
Protocol: (§1) Cells (Jurkat, K562, U937, HeLa, HEK293 and normal Fibroblasts) were purchased from Russian Cell Culture Collection (Institute of Cytology of the Russian Academy of Sciences, Saint Petersburg, Russia) and cultured according to standard mammalian tissue culture protocols and sterile technique. Human cell lines HEK293 and HeLa were obtained from the HPA Culture Collections (Salisbury, UK). All cell lines used in the study were tested and shown to be free of mycoplasma and viral contamination.
(§2) Cells were maintained in RPMI 1640 (Jurkat, K562, U937) (Gibco, Thermo Fisher Scientific, Waltham, MA, USA) supplemented with 4 mM glutamine, 10% FBS (Sigma, Burlington, MA, USA) and 100 units/mL penicillin-streptomycin (Sigma). All types of cells were grown in an atmosphere of 5% CO2 at 37 °C. The cells were subcultures at 2–3 days intervals. Adherent cells (HEK293, HeLa, fibroblasts) were suspended using trypsin/EDTA and counted after they have reached 80% confluency. Cells were then seeded in 24 well plates at 5 × 10^4 cells per well and incubated overnight. Jurkat, K562, U937 cells were subcultured at 2 day intervals with a seeding density of 1 × 10^5 cells per 24 well plates in RPMI with 10% FBS.
(§3) Viability (Live/dead) assessment was performed by staining cells with 7-AAD (7-Aminoactinomycin D) (Biolegend, San Diego, CA, USA). Cells were treated of test compounds with six different concentrations (1, 5, 10, 15, 30 and 60 μM). After treatment, cells were harvested, washed 1–2 times with phosphate-buffered saline (PBS) and centrifuged at 400× g for 5 min. Cell pellets were resuspended in 200 μL of flow cytometry staining buffer (PBS without Ca^2+ and Mg^2+, 2.5% FBS) and stained with 5 μL of 7-AAD staining solutionfor 15 min at room temperature in the dark. Samples were acquired on NovoCyteTM 2000 FlowCytometry System (ACEA, San Diego, CA, USA) equipped with 488 nm argon laser. Detection of 7-AAD emission was collected through a 675/30 nm filter in FL4 channel.

[2] = test system: K562 (chronic myeloid leukemia) cells; experiment: Cytotoxicity assay (7-AAD viability, flow cytometry), K562; type: cell-based, human; settings: Homo sapiens, K562, mean ± SE, at least three experiments in duplicate; viable cells; read-out: IC50 K562
Protocol: as §1, §2, §3

[3] = test system: HEK293 (embryonic kidney) cells; experiment: Cytotoxicity assay (7-AAD viability, flow cytometry), HEK293; type: cell-based, human; settings: Homo sapiens, HEK293, mean ± SE, at least three experiments in duplicate; viable cells
Protocol: as §1
(§4) HEK293, HeLa cell lines and fibroblasts were cultured as monolayers and maintained in Dulbecco’s modified Eagle’s medium (DMEM, Gibco BRL, Waltham, MA, USA) supplemented with 10% foetal bovine serum and 1% penicillin-streptomycin solution at 37 °C in a humidified incubator under a 5% CO2 atmosphere.
as §2, §3

[4] = test system: U937 (histiocytic lymphoma) cells; experiment: Cytotoxicity assay (7-AAD viability, flow cytometry), U937; type: cell-based, human; settings: Homo sapiens, U-937, mean ± SE, at least three experiments in duplicate; viable cells; read-out: IC50 U937
Protocol: as §1, §2, §3

normal human fibroblasts = experiment: Cytotoxicity assay (7-AAD viability, flow cytometry), normal fibroblasts; type: cell-based; settings: Homo sapiens, Fibroblast, mean ± SE, at least three experiments in duplicate
Protocol: as §1, §4, §2
as §3, with “Cells were treated of test compounds with six different concentrations (1, 5, 10, 15, 30 and 60 μM).” left out

[5] = test system: HeLa (cervical cancer) cells; experiment: Cytotoxicity assay (7-AAD viability, flow cytometry), HeLa; type: cell-based, human; settings: Homo sapiens, HeLa, mean ± SE, at least three experiments in duplicate; viable cells
Protocol: as §1, §4, §2, §3

Compound	IC50 [1] [µM]	IC50 [2] [µM]	IC50 [3] [µM]	IC50 [4] [µM]	melting point [°C]	IC50 (normal human fibroblasts) [µM]	IC50 [5] [µM]
CC(=O)O[C@H]1CC[C@@]2(C)C(CC[C@]3(C)C2CCC2C4C(C(C)C)CC[C@]4(C(=O)NCCN)CC[C@]23C)C1(C)C (stereo partly drawn) [Compound 5, 3β-N-(2-Aminoethyl)-3-O-acetyl-lupane-28-amide]	2.3 ± 0.11	2.8 ± 0.23	4.8 ± 0.25	1.9 ± 0.34	120 to 122	5.3 ± 0.27	3.9 ± 0.41
CC(=O)O[C@H]1CC[C@@]2(C)C(CC[C@]3(C)C2CCC2C4C(C(C)C)CC[C@]4(C(=O)NCCCCN)CC[C@]23C)C1(C)C (stereo partly drawn) [Compound 6, 3β-N-(4-Aminobuthyl)-3-O-acetyl-lupane-28-amide]	7.7 ± 0.31	1.8 ± 0.12	6.7 ± 0.21	4.5 ± 0.43	104 to 106	8.3 ± 0.29	7.1 ± 0.18
CC(=O)O[C@H]1CC[C@@]2(C)C(CC[C@]3(C)C2CCC2C4C(C(C)C)CC[C@]4(C(=O)NCCCN4CCN(CCCN)CC4)CC[C@]23C)C1(C)C (stereo partly drawn) [Compound 8a, 3β-N-{[3-(3-Aminopropyl)piperazinyl]propyl}-3-O-acetyl-lupane-28-amide]	4.5 ± 0.29	3 ± 0.19	5.9 ± 0.14	8.2 ± 0.13	119 to 121	7.3 ± 0.43	6.1 ± 0.38
